# Experimental data as given in ChEMBL document CHEMBL1201862, “PubChem BioAssay data set” (2004).
# The source made the active and inactive calls.
# Legend:
# [1] = molecular target: Muscarinic acetylcholine receptor M5 (Homo sapiens, UniProt P08912); assay: M5 receptor positive allosteric modulators, dose response, cell-based, concentration-response curve (AID 651878); format: functional
# [2] = molecular target: Kallikrein-7 (Homo sapiens, UniProt P49862); assay: Fluorescence Intensity-based biochemical primary high throughput dose response assay to identify activators of kallikrein-7 (K7) zymogen.
# Chain of Kallikrein-7 (P49862 whole entry): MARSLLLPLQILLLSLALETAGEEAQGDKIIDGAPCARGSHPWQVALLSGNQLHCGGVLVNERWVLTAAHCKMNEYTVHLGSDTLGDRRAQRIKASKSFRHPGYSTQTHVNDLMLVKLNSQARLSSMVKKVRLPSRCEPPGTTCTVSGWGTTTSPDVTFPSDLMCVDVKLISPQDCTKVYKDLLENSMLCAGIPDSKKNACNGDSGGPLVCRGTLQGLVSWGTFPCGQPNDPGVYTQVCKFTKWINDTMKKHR
# [3] = Luminescence-based cell-based high throughput dose response assay to identify activators of the DAF-12 from the parasite S. stercoralis (ssDAF-12).; format: functional
# [4] = molecular target: T1, Oxysterols receptor LXR-beta (Homo sapiens, UniProt P55055); assay: LXR agonists, Gal4 luciferase reporter, dose response, counter-screen for ssDAF-12 agonist project, cell-based, luminescence, HEK293, S. stercoralis campaign (AID 720737); format: functional; conditions: read-out: IC50 (the source's name)
# T1 sequence (P55055 whole entry): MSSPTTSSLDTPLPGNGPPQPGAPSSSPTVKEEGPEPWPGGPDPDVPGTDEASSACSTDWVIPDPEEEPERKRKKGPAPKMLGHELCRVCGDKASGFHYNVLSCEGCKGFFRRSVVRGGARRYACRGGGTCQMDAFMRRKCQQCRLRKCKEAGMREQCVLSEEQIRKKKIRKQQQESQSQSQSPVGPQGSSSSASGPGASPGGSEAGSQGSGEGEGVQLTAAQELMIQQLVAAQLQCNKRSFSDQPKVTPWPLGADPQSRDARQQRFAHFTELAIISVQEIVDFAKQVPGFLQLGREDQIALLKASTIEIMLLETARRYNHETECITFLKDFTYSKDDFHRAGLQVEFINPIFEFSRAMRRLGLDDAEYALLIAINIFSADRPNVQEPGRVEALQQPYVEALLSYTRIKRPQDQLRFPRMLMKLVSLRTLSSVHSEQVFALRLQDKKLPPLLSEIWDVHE
# [5] = inhibitors of intracellular T. cruzi replication, confirmation, NIH3T3 host cells, beta-gal luminescence (AID 2044); format: functional, cell-based;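 note: intracellular parasites grown in NIH/3T3 mouse fibroblasts as host cells; luminescent beta-galactosidase reporter signal from transgenic T. cruzi replicating inside host cells; inhibitors lower the luminescence signal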
# [6] = cytotoxicity toward NIH3T3 fibroblasts, dose response, counter-screen, cell-based, ATP luminescence, mouse fibroblasts (AID 2010); format: functional;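 note: cells exposed to compound for about 90 hours before reading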
# [7] = molecular target: Caspase-6 (Homo sapiens, UniProt P55212); assay: human caspase-6 inhibitors, dose response, biochemical, VEID-R110 fluorescence, cherry-pick (AID 720632)
# Chain of Caspase-6 (P55212 24-179 limits assumed): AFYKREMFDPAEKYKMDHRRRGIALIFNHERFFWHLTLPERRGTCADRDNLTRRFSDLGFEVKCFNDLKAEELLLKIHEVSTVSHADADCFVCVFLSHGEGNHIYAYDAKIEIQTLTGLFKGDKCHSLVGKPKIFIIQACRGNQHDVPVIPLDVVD
# Chain of Caspase-6 (P55212 194-293 limits assumed): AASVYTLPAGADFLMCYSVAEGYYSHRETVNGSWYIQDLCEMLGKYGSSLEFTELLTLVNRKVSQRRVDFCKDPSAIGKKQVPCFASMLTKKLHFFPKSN
# [8] = cells
# [9] = Luminescence Cell-Based Dose Confirmation HTS to Identify Activators of 5'UTR Stem-Loop Driven Alpha-Synuclein mRNA Translation in H4 Neuroglioblastoma Cells. [Related pubchem assays: 1829 (Project Summary), 1814 (Primary HTS)]; format: functional
# [10] = Luminescence Cell-Based Dose Response HTS to Identify Activators of Luciferase Translation or Activity in H4 […] Cells. [Related pubchem assays: 1829 (Project Summary), 1814 (Primary HTS)]; format: functional
# [11] = tested on: H4; assay: Luminescence Cell-Based Dose Response HTS to Identify Activators of 5'UTR Stem-Loop Driven Prion Protein mRNA Translation in H4 Neuroglioblastoma Cells. [Related pubchem assays: 1829 (Project Summary), 1814 (Primary HTS)]; format: functional; conditions: Homo sapiens
# [12] = HepG2 cell cytotoxicity, dose response, cytotoxicity control, ATP luminescence, cherry-pick, set 6 (AID 1053125); format: functional, cell-based
# [13] = molecular target: T1, Oxysterols receptor LXR-beta; format: functional, cell-based
# [14] = tested on: BJ; assay: cytotoxicity toward BJ-TERT fibroblasts, dose response, cell-based, RAS-independent, luminescence (AID 1933); format: functional; conditions: Homo sapiens
# [15] = tested on: BJ; assay: cells; format: functional, cell-based; conditions: Homo sapiens
# [16] = tested on: BJ; assay: cytotoxicity toward BJ-TERT-LT-ST fibroblasts, dose response, cell-based, RAS-independent, luminescence (AID 1935); format: functional; conditions: Homo sapiens;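 note: BJ fibroblasts immortalized with TERT plus LT and ST oncogenes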
# [17] = cytotoxicity toward DRD oncogenic fibroblasts, dose response, cell-based, non-viral oncogenic, luminescence (AID 1934); format: functional; conditions: Homo sapiens
# [18] = molecular target: Glucose-6-phosphate 1-dehydrogenase (Homo sapiens, UniProt P11413); assay: human G6PD enzyme inhibitors, dose response, selectivity assay for P. falciparum G6PD inhibitor project, biochemical, fluorescence (AID 504792); format: functional
# Chain of Glucose-6-phosphate 1-dehydrogenase (P11413 whole entry): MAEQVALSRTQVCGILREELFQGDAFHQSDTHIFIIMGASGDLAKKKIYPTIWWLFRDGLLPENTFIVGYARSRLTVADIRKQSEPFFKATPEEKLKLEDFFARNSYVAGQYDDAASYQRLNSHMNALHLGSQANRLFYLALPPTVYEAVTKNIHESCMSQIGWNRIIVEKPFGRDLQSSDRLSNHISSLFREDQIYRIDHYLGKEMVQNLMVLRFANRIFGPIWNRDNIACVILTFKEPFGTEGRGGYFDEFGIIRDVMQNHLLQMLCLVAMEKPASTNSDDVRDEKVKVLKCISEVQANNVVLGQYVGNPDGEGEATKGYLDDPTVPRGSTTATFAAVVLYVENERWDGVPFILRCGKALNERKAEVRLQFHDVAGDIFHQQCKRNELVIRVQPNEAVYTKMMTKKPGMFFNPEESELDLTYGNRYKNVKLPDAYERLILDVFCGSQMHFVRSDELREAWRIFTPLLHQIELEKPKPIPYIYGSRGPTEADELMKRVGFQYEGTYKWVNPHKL
# [19] = molecular target: Nonstructural protein 1 (Influenza A virus, UniProt Q194T2); format: functional, Influenza A virus (A/California/07/2009(H1N1))
# Chain of Nonstructural protein 1 (Q194T2 whole entry): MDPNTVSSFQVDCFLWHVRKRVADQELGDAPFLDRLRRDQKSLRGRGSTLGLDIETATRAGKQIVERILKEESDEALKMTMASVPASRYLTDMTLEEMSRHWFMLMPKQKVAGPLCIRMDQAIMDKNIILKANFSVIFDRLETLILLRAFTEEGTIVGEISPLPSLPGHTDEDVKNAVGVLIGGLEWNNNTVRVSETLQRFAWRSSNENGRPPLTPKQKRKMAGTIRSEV
# [20] = molecular target: T2, Probable nicotinate-nucleotide adenylyltransferase (Staphylococcus aureus (strain N315), UniProt P65502); format: functional, Staphylococcus aureus subsp. aureus N315;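 for IC50 Mean: confirmatory dose-response retesting of NadD inhibitor hits first found in an ultra-high-throughput screen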
# T2 sequence (P65502 whole entry): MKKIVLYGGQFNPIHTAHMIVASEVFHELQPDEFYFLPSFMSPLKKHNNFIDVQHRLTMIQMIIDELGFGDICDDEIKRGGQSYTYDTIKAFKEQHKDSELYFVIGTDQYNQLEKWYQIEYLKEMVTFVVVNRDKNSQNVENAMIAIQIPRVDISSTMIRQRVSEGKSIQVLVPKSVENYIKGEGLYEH
# [21] = molecular target: T2, Probable nicotinate-nucleotide adenylyltransferase; format: functional, Staphylococcus aureus subsp. aureus N315; conditions: read-out: IC50_Mean
# [22] = molecular target: Protein Tat (Human immunodeficiency virus type 1 group M subtype B (isolate HXB2)(HIV-1), UniProt P04608); format: functional;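 note: tat binding to TAR RNA read out by fluorescence polarization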
# Chain of Protein Tat (P04608 whole entry): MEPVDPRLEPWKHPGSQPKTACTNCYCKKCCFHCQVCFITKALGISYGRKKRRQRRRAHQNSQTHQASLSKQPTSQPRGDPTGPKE
# [23] = THP-1 cell cytotoxicity, dose response, cytotoxicity control for Vif-APOBEC3G degradation inhibitor project, THP-1 cells (AID 1117359); format: functional; conditions: Human immunodeficiency virus 1, THP-1
# [24] = molecular target: Glutathione-S-transferase (Schistosoma japonicum, UniProt Q26513); assay: biotin-GST/anti-GST TR-FRET signal inhibitors, dose response, artefact control for Vif-APOBEC3G degradation inhibitor project, biochemical (AID 1117362); format: functional
# Chain of Glutathione-S-transferase (Q26513 whole entry): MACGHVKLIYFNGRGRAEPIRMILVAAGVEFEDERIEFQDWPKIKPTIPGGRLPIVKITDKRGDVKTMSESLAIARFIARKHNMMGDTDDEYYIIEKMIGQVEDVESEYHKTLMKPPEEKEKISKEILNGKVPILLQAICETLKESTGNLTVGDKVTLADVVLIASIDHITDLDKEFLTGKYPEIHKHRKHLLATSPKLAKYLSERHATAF
# [25] = molecular target: Paired box protein Pax-8 (Homo sapiens, UniProt Q06710); assay: inhibitors of PAX8-driven TPO luciferase reporter, dose response, RMG-I cells, cherry-pick (AID 687027); format: functional, cell-based;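 note: luciferase reporter driven by Pax8 target thyroperoxidase promoter measured by SteadyGlo luminescence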
# Chain of Paired box protein Pax-8 (Q06710 whole entry): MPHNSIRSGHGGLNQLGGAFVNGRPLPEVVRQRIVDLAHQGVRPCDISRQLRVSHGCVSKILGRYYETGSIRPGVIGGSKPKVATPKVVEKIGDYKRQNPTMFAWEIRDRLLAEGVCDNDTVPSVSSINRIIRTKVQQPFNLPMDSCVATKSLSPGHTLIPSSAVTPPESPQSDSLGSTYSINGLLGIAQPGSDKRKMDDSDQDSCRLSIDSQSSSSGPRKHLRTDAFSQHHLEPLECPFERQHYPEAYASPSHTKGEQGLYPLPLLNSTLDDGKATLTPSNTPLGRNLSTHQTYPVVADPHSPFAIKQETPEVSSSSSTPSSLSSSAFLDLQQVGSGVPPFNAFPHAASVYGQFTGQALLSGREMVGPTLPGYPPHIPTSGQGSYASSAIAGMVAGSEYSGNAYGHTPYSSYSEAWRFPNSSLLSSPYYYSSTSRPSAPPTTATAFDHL
# [26] = A2780 ovarian cancer cell cytotoxicity, dose response, cytotoxicity control, plate reader, dry powder samples (AID 743046); format: functional, cell-based
# [27] = NIH:OVCAR-3 ovarian cancer cell cytotoxicity, dose response, PAX8 inhibitor project, plate reader, dry powder samples (AID 743044); format: functional, cell-based
# [28] = IGROV1 ovarian cancer cell cytotoxicity, dose response, PAX8 inhibitor project, plate reader, dry powder samples (AID 743043); format: functional, cell-based; conditions: IGROV-1
# [29] = cytotoxicity in OVCAR8 ovarian cancer cells, dose response, PAX8 project, cell-based, plate reader, dry powder samples (AID 743197); format: functional; conditions: OVCAR-8
# [30] = inhibitors of PGC1a acetylation in cells, dose response, cell-based, cherry-picked samples (AID 720514); format: functional;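 note: potency may reflect raised or lowered acetylation signal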
# [31] = P. falciparum Dd2 growth inhibitors, dose response, SYBR Green, cherry-picked samples (AID 1159567); format: functional, cell-based
# [32] = HepG2 cell cytotoxicity, dose response, cytotoxicity control, cherry-picked samples (AID 1159577); format: functional, cell-based
# [33] = molecular target: Sphingosine 1-phosphate receptor 2 (Homo sapiens, UniProt O95136); assay: Dose Response Cell Based Assay for Agonists of the S1P2 Receptor. [Related pubchem assays: 729, 736, 843 ]; format: functional
# Chain of Sphingosine 1-phosphate receptor 2 (O95136 whole entry): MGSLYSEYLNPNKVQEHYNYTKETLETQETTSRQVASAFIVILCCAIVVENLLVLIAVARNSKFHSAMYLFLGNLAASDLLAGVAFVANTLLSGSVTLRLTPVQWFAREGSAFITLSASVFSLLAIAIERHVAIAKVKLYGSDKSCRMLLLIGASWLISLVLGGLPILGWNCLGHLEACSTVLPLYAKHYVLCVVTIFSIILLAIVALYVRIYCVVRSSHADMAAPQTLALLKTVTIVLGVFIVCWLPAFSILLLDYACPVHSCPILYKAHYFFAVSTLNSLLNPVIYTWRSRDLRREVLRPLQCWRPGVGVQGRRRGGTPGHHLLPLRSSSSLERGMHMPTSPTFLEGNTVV
# [34] = molecular target: G-protein coupled receptor 183 (Homo sapiens, UniProt P32249); assay: SAR confirmation of small molecule antagonists of the EBI2 receptor via a luminescent beta-arrestin assa.; format: functional
# Chain of G-protein coupled receptor 183 (P32249 whole entry): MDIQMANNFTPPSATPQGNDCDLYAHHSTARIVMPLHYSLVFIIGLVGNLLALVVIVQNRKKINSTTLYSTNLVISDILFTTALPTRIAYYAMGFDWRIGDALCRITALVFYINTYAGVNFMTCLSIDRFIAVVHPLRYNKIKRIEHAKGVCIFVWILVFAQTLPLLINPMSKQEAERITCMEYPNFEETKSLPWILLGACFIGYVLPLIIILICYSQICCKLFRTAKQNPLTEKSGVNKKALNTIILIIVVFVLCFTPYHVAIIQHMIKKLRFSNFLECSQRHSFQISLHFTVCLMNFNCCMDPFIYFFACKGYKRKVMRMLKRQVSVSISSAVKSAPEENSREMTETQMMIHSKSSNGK
# [35] = HEp-2 cell cytotoxicity, dose response, cytotoxicity control for RSV inhibitor project, HTS (AID 2410); format: functional; conditions: human respiratory syncytial virus
# [36] = molecular target: T1, Oxysterols receptor LXR-beta; format: functional, cell-based; remark: listed apart in the source
# [37] = cells; remark: listed apart in the source
# [38] = tested on: Vero; assay: host cell cytotoxicity of antiviral hits, dose response, cytotoxicity control for West Nile virus antiviral project, secondary assay (AID 1650); format: functional; conditions: Chlorocebus sabaeus
# [39] = tested on: Vero; assay: West Nile virus antiviral activity, cell-based, CPE readout (AID 1621); format: functional; conditions: Chlorocebus sabaeus
# [40] = P. falciparum Dd2 blood-stage growth inhibition, dose response, SYBR Green fluorescence, erythrocytes, dry powder, set 2 (AID 1159574); format: functional, cell-based
# [41] = HeLa 2N DNA content increase, dose response, cell-based, IC50 (AID 1117349); format: functional
# [42] = HeLa 4N DNA content increase, dose response, cell-based, IC50 (AID 1117351); format: functional
# Chain of Muscarinic acetylcholine receptor M5 (P08912 whole entry): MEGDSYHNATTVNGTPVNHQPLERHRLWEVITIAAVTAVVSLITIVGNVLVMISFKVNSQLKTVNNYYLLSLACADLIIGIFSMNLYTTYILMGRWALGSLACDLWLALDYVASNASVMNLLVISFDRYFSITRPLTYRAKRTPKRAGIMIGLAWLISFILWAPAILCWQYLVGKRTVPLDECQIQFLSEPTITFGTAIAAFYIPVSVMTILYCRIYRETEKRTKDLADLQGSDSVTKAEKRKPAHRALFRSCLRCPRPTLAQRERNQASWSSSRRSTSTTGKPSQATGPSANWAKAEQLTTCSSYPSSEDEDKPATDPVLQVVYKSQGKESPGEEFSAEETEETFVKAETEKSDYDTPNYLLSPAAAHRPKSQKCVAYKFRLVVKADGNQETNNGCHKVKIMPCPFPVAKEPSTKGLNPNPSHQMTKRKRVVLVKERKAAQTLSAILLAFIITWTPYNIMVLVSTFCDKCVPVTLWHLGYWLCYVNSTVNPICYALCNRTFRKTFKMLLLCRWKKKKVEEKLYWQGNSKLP
structure (smiles),measurement,setting,value
Cc1ccc(OCCN2C(=O)C(=O)c3cc(OC(F)(F)F)ccc32)cc1,EC50,[1],0.52 µM (active)
Cc1cccn2c(=O)c3cc(C#N)/c(=N/C(=O)c4ccccc4)n(Cc4ccco4)c3nc12,EC50,[2],7.95 µM (active)
NC(=O)c1ccccc1NC(=O)c1ccc2ccccc2c1,IC50,[3],> 67.6 µM (inactive)
same,EC50,[4],> 67.6 µM (inactive)
Cn1ccs/c1=N\C(=O)c1ccc([N+](=O)[O-])o1,EC50,[5],< 0.1 µM (active)
same,EC50,[6],24 µM (active)
same,AC50,[7],6.3 µM (active)
same,EC50,[8],0.03 µM (active)
Cc1cc(-c2nc3cccnc3s2)ccc1NS(=O)(=O)c1cccs1,EC50,[9],9.73 µM (active)
same,EC50,[10],30.8 µM (active)
same,EC50,[11],0.197 µM (active)
same,AC50,[12],7.51 µM (active)
same,EC50,[13],> 67.5 µM (inactive)
CCN1/C(=C/C=C/C=C/C=C/c2sc3ccccc3[n+]2CC)Sc2ccccc21,EC50,[14],3.21 µM (active)
same,EC50,[15],17.8 µM (active)
same,EC50,[16],11.8 µM (inconclusive)
same,EC50,[17],10.6 µM (active)
same,IC50,[18],> 80 µM (inactive)
same,IC50,[19],5.73 µM (active)
same,IC50,[20],19.8 µM (active)
same,IC50,[21],27 µM (active)
same,IC50,[22],> 100 µM (active)
same,CC50,[23],1.26 µM (active)
same,IC50,[24],3.88 µM (active)
C[C@@H]1CCCCO[C@H](CN(C)Cc2ccc(C(F)(F)F)cc2)[C@H](C)CN([C@H](C)CO)C(=O)c2cc(NS(=O)(=O)c3ccc(Cl)cc3)ccc2O1,AC50,[25],5.45 µM (active)
same,AC50,[26],39 µM (active)
same,AC50,[27],12.7 µM (active)
same,AC50,[28],34.6 µM (active)
same,AC50,[29],15.9 µM (active)
OC[C@H]1[C@H](c2ccc(C#CC3CCCC3)cc2)[C@@H]2CN(CCC(F)(F)F)CCCCN12,AC50,[30],16.8 µM (active)
same,AC50,[31],0.848 µM (active)
same,AC50,[32],10.4 µM (active)
Cc1ccc(C2CC(=O)c3cnc(N4CCc5ccccc5C4)nc3C2)cc1 (centres undefined),EC50,[33],> 50 µM (not active)
CC(C)(C)c1ccc(CN2CCN(C(=O)/C=C/c3ccc(Br)cc3)CC2)cc1,IC50,[34],0.00936 µM (active)
COc1ccccc1Nc1nc(-c2cccs2)cs1,CC50,[35],47.2 µM (active)
same,EC50,[36],> 67.5 µM (inactive)
same,EC50,[37],> 67.5 µM (inactive)
CCN(CC)S(=O)(=O)c1ccc2nc(O)c3ccccc3c2c1,CC50,[38],38.9 µM (active)
same,IC50,[39],45.5 µM (active)
COc1ccc(NC(=O)N2CCCCN3[C@H](CO)[C@H](c4ccc(C#Cc5ccccc5)cc4)[C@H]3C2)cc1,AC50,[25],23.2 µM (active)
same,AC50,[28],46.7 µM (active)
same,AC50,[40],3.22 µM (active)
Cc1cc(CC(C)CC(C)(C)C)n(O)c(=O)c1 (centres undefined) [PIROCTONE],IC50,[41],> 10 µM (inactive)
same,IC50,[42],> 10 µM (inactive)
